# Data reported in US20060251751A1, “Sophoridine and its use as an analgesic” (SHANGHAI FANGDA PHARMACEUTICALS, LTD., priority 2001, published 2006).
# Marks after values point to notes of the source that are not given here.
# Key:
# [1] = system: patients suffering from advanced cancers; test: Clinical trials in more than 200 patients with advanced cancers; assay type: in vivo, human
# Male Kunming mice = test: Analgesic effect of sophoridine on mice model (hot plate method); assay type: in vivo; conditions: for Pain thresholds (seconds) After administration: 10 minutes after administration; for Pain thresholds (seconds) Before administration: before administration (baseline)
# Experimental: The analgesic activity of sophoridine was tested in vivo in mice experimental models, using Hot Plate Method, which are known to evaluate the pain in animals.
# The method that was used is described by Eddy N. B. and Leimbach D. (J. Pharm. Exp. Ther. 107: 385-393, 1953) and somewhat modification is made in the present invention.
# Male Kunming mice weighing 18-22 g were used as experimental model. The analgesic effect of the sophoridine was evaluated by analysing the behavioral response of the animals on a hot surface at 55° C.±0.5° C. The alkaloid compounds being tested were administered intravenously through the tail vein 10 minutes before starting the test.
# Briefly, the process consisted of placing the animals on the plate and keeping them in a plastic cylinder 22 cm diameter and 11 cm high. The time the animals took to lick a paw or jump off the hot surface was determined. The animals were selected before starting the test that those with response latency (the pain threshold values before administrations) longer than 30 seconds were excluded from the experiment. The certificated animals divided into six groups (10 animals/group). Five experimental groups received 25, 20, 15, 10 and 5 mg/kg of the sophoridine suspended in a normal saline solution, respectively. The control group received treatment only with the solvent (normal saline).
# 10 minutes after administering the alkaloids being tested, the test was repeated and the maximum response latency time (seconds) took the animals to lick the hindlimb or jump off and run away was again recorded.
# [2] = system: acetylcholine level in central nervous system; test: Preliminary study on mechanism of analgesic effect (acetylcholine level in CNS)
# Text: Therefore, sophoridine and derivatives thereof are also useful for treating patients suffering from neurodegenerative diseases, senile dementia of the Alzheimer's type (SDAT) and Pakinson's disease (PD).
# mice [3] = test: Effect of the opioid receptor antagonist naloxone on morphine- and sophoridine-induced analgesia; assay type: in vivo
# Experimental: Following procedures of the previous Examples, screening and grouping of experimental animals was carried out. […] The animals of negative control were injected with normal saline. The pain thresholds (response latency time, seconds, of each animal was recorded at 15, 30, 60, and 90 minutes after administrations, respectively. The results are summarized in Table 4 below.
# Kunming mice = test: Analgesic effect of sophoridine on mice models (acetic acid induced writhing method); assay type: in vivo; conditions: for Number of writhe (X ± SD): 0.6% acetic acid i.p.
# Experimental: The analgesic activity of sophoridine was also tested in vivo in mice experimental models, using acetic acid induced writhing Method which are known to evaluate the pain in animals. Writhing test is a standard procedure for detecting and comparing analgesic activity in laboratory animals, and generally correlates well with human efficacy.
# 30 Male and 30 female Kunming mice weighing 18-22 g were used as experimental models. […] Then, the animals randomly divided into six groups, each group includes 10 animals. Five experimental groups intravenously received 25, 20, 15, 10 and 5 mg/Kg of the sophoridine suspended in a normal saline solution via the tail vein, respectively.
# The frequency of writhing syndrome was counted for 5 minutes from 15 minutes after the injection of spophoridine or placebo. The control group received treatment only with the solvent (normal saline).
# mice [4] = test: Comparison of analgesic effects and synergistic activity between sophoridine and morphine (hot plate method); assay type: in vivo; conditions: for Pain thresholds before admin.: before admin. (baseline)
# Experimental: In five experimental groups, animals of each group received 25, 20, 15, 10 and 5 mg/kg of the sophoridine suspended in a normal saline solution, respectively.
# tumor cells = conditions: cited from earlier work
# [5] = sophoridine 25 mg/kg i.v., hot plate 55°C
structure (smiles),measurement,setting,value
O=C1C=CC[C@@H]2[C@H]3CCCN4CCC[C@@H](CN12)[C@@H]34 [sophocarpine],effect on pain caused by malignant growth of cancer tissues (in words),[1],significantly inhibit or alleviate mild to severe pain
same,effect on proliferation of tumor cells (in words),[1],inhibit proliferation of tumor cells
O=C1CCC[C@@H]2[C@H]3CCCN4CCC[C@H](CN12)[C@@H]34 [Sophoridine],effect on pain caused by malignant growth of cancer tissues (in words),[1],significantly inhibit or alleviate mild to severe pain
same,effect on proliferation of tumor cells (in words),[1],inhibit proliferation of tumor cells
same,side effects of tolerance and addiction (in words),[1]; higher doses for a long term,did not develop any side effects of tolerance and addiction
same,analgesic activity in mice models (in words),"Male Kunming mice; hot plate method, 5-25 mg/kg i.v.",good analgesic activity
same,Pain thresholds (seconds) After administration,Male Kunming mice; sophoridine 5 mg/kg i.v.,25.8 ± 20.74 s
same,Pain thresholds (seconds) Before administration,Male Kunming mice; sophoridine 5 mg/kg i.v.,16.3 ± 6.02 s
same,Pain thresholds (seconds) After administration,Male Kunming mice; sophoridine 10 mg/kg i.v.,24.8 ± 15.99 s
same,Pain thresholds (seconds) Before administration,Male Kunming mice; sophoridine 10 mg/kg i.v.,11.7 ± 4.59 s
same,Pain thresholds (seconds) After administration,Male Kunming mice; sophoridine 15 mg/kg i.v.,38.5 ± 17.19 s
same,Pain thresholds (seconds) Before administration,Male Kunming mice; sophoridine 15 mg/kg i.v.,14.7 ± 4.62 s
same,Pain thresholds (seconds) After administration,Male Kunming mice; sophoridine 20 mg/kg i.v.,57.1 ± 6.10 s
same,Pain thresholds (seconds) Before administration,Male Kunming mice; sophoridine 20 mg/kg i.v.,12.4 ± 4.25 s
same,Pain thresholds (seconds) After administration,Male Kunming mice; [5],48.6 ± 19.14 s
same,Pain thresholds (seconds) Before administration,Male Kunming mice; [5],16.4 ± 6.48 s
same,acetylcholine level in central nervous system (in words),[2],significant increasing acetylcholine level
same,naloxone counteracting the analgesic effect (in words),"mice [3]; naloxone 2.0 mg/kg, morphine 10 mg/kg or sophoridine 20 mg/kg",ineffective in counteracting the effect
same,Pain thresholds after admin. (seconds) 15 min.,"mice [3]; sophoridine alone 20 mg/kg i.v., 15 min.",34.5 ± 16.2 s
same,Pain thresholds after admin. (seconds) 30 min.,"mice [3]; sophoridine alone 20 mg/kg i.v., 30 min.",23.8 ± 7.0 s
same,Pain thresholds after admin. (seconds) 60 min.,"mice [3]; sophoridine alone 20 mg/kg i.v., 60 min.",21.8 ± 8.9 s
same,Pain thresholds after admin. (seconds) 90 min.,"mice [3]; sophoridine alone 20 mg/kg i.v., 90 min.",18.3 ± 6.6 s
same,Pain thresholds before admin.,"mice [3]; sophoridine alone 20 mg/kg i.v., before admin. (baseline)",17.9 ± 2.6 s
same,Number of writhe (X ± SD),Kunming mice; sophoridine 5 mg/kg i.v.,23.2 ± 6.43
same,Number of writhe (X ± SD),Kunming mice; sophoridine 10 mg/kg i.v.,14.1 ± 9.64
same,Number of writhe (X ± SD),Kunming mice; sophoridine 15 mg/kg i.v.,9.9 ± 6.3
same,Number of writhe (X ± SD),Kunming mice; sophoridine 20 mg/kg i.v.,1.5 ± 1.35
same,Number of writhe (X ± SD),"Kunming mice; sophoridine 25 mg/kg i.v., counted for 5 minutes from 15 minutes after injection",0***
same,analgesic activity in mice models (in words),"Kunming mice; writhing method, 5-25 mg/kg i.v.",good analgesic activity
same,Pain thresholds after admin. (seconds) 15 min.,mice [4]; sophoridine 5 mg/kg,17.5 ± 3.3 s
same,Pain thresholds after admin. (seconds) 30 min.,mice [4]; sophoridine 5 mg/kg,16.6 ± 6.5 s
same,Pain thresholds after admin. (seconds) 60 min.,mice [4]; sophoridine 5 mg/kg,16.0 ± 4.5 s
same,Pain thresholds after admin. (seconds) 90 min.,mice [4]; sophoridine 5 mg/kg,19.3 ± 5.4 s
same,Pain thresholds before admin.,mice [4]; sophoridine 5 mg/kg,17.45 ± 2.6 s
same,Pain thresholds after admin. (seconds) 15 min.,mice [4]; sophoridine 10 mg/kg,20.2 ± 7.2 s
same,Pain thresholds after admin. (seconds) 30 min.,mice [4]; sophoridine 10 mg/kg,28.0 ± 18.3 s
same,Pain thresholds after admin. (seconds) 60 min.,mice [4]; sophoridine 10 mg/kg,12.6 ± 5.9 s
same,Pain thresholds after admin. (seconds) 90 min.,mice [4]; sophoridine 10 mg/kg,20.5 ± 15.0 s
same,Pain thresholds before admin.,mice [4]; sophoridine 10 mg/kg,18.6 ± 4.9 s
same,Pain thresholds after admin. (seconds) 15 min.,mice [4]; sophoridine 15 mg/kg,32.9 ± 19.2 s
same,Pain thresholds after admin. (seconds) 30 min.,mice [4]; sophoridine 15 mg/kg,31.3 ± 17.5 s
same,Pain thresholds after admin. (seconds) 60 min.,mice [4]; sophoridine 15 mg/kg,15.2 ± 10.2 s
same,Pain thresholds after admin. (seconds) 90 min.,mice [4]; sophoridine 15 mg/kg,15.8 ± 5.7 s
same,Pain thresholds before admin.,mice [4]; sophoridine 15 mg/kg,16.45 ± 3.9 s
same,Pain thresholds after admin. (seconds) 15 min.,mice [4]; sophoridine 20 mg/kg,36.8 ± 18.2 s
same,Pain thresholds after admin. (seconds) 30 min.,mice [4]; sophoridine 20 mg/kg,24.6 ± 7.7 s
same,Pain thresholds after admin. (seconds) 60 min.,mice [4]; sophoridine 20 mg/kg,23.0 ± 9.9 s
same,Pain thresholds after admin. (seconds) 90 min.,mice [4]; sophoridine 20 mg/kg,19.3 ± 6.6 s
same,Pain thresholds before admin.,mice [4]; sophoridine 20 mg/kg,16.9 ± 2.5 s
same,Pain thresholds after admin. (seconds) 15 min.,mice [4]; sophoridine 25 mg/kg,44.3 ± 14.9 s
same,Pain thresholds after admin. (seconds) 30 min.,mice [4]; sophoridine 25 mg/kg,28.3 ± 11.4 s
same,Pain thresholds after admin. (seconds) 60 min.,mice [4]; sophoridine 25 mg/kg,20.3 ± 4.9 s
same,Pain thresholds after admin. (seconds) 90 min.,mice [4]; sophoridine 25 mg/kg,18.8 ± 6.3 s
same,Pain thresholds before admin.,mice [4]; sophoridine 25 mg/kg,15.4 ± 4.0 s
same,analgesic activity compared to morphine hydrochloride (in words),"mice [4]; sophoridine in higher doses, hot plate",comparable or better analgesic activity
same,anti-tumor activities (in words),tumor cells; Xuemei Li et al. 1987,tumor cell-killing and tumor cell growth-inhibiting activities
same,effect on functions of hematopoietic and immunological systems (in words),tumor cells; Xuemei Li et al.,does not inhibit the functions of hematopoietic and immunological systems
